Experimental data from patent publication EP4682141A1, “TRICYCLIC COMPOUND” (ONO Pharmaceutical Co., Ltd., priority 2023, dated 2024).
Each block holds one molecule with its values, some of them ahead of it.

Assays:
EP1 = biological target: T1, EP1 (Homo sapiens, UniProt P34995); assay: agonist activity on human EP1 receptor (intracellular calcium concentration, EP1-CHO cells); assay type: cell-based
T1 construct: expressed in transfected cells; host or cells: CHO (EP1-CHO)
T1 sequence (P34995 1-402): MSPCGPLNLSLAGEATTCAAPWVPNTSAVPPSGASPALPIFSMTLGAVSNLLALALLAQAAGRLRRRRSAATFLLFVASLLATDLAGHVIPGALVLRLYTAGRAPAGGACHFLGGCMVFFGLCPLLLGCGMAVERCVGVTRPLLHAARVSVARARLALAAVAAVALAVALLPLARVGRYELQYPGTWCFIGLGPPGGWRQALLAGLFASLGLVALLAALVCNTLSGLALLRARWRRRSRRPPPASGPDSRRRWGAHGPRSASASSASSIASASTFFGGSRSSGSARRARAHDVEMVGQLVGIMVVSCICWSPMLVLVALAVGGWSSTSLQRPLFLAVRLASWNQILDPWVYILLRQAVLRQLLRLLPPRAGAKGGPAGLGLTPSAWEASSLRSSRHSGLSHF
Method: Using CHO cells (EP1-CHO, EP2-CHO, EP3-Chem1, EP4-CHO and IP-CHO) on which various human prostanoid receptors were forcibly expressed, the agonist activity of the test compound on the various prostanoid receptors was examined using the intracellular calcium concentration for EP1 and EP3, and the intracellular cyclic AMP (hereinafter, abbreviated as cAMP) production amount for EP2, EP4 and IP as indices.
The test compound and control substances (PGE2 and iloprost) were dissolved in dimethyl sulfoxide (DMSO) to prepare a 10 mmol/L solution. The prepared 10 mmol/L solution was thawed at the time of use, serially diluted using DMSO, and diluted with a buffer solution 1 for measurement (Hank's balanced salt solution (Thermofischer scientific) containing 1 w/v% human serum albumin (Sigma), 2 µmol/L indomethacin (Sigma), 2.5 mmol/L probenecid, and 10 mmol/L HEPES-NaOH (pH7.4)) or a buffer solution 2 for measurement (D-PBS (Nacalai Tesque) containing 0.1 w/v% human serum albumin, 2 µmol/L diclofenac (Sigma), and 1 mmol/L 3-isobutyl-1-methylxanthine (Sigma)) to perform experiments.
The intracellular calcium concentration was measured using Calcium 6 Assay Kit (Molecular Devices). On the day before the measurement, EP1-CHO and EP3-Chem 1 were obtained by thawing the frozen cells, suspended using Ham's F-12 medium (Thermofischer scientific) containing inactivated (56°C, 30 min) 9.8 vol% FBS (Thermofischer scientific) and penicillin-streptomycin (Nacalai Tesque), seeded into a 96 well UV plate to 1.0×10^5 cells per well, and static cultured at 37°C in the presence of 5%CO2. On the day of the measurement, the medium was removed, followed by addition of 120 µL of the Calcium indication solution dissolved in the buffer solution 1 for measurement and incubation at room temperature under light-shielding for about 1 hour. After 1 hour incubation, the 96 well UV plates were set in a fluorescence spectrophotometer (FDSS-7000, Hamamatsu Photonics) to measure the intracellular calcium concentration. Thirty microliters of the buffer solution 1 for measurement containing various concentrations of agonists were added, and the mixture was reacted. The intracellular calcium concentration was measured by irradiating the cells with 480 nm excitation light and measuring the fluorescence intensity at 540 nm.

[1] = system: rat renal ischemia reperfusion (IR) model; assay: in vivo drug efficacy in rat renal ischemia reperfusion (IR) model; parameters: species or system Crl : CD (SD) rats
Method: The effect of the present compound on renal IR damage was evaluated using male rats.
Male Crl : CD (SD) rats aged 3 or 4 weeks were purchased from Charles River Laboratories Japan, and subjected to experiments. Animals were fed ad libitum with FR-2 (Funabashi Farm) at the time of arrival and with solid feed CE-2 (CLEA Japan) for one week before single kidney removal, and watered ad libitum.
After acclimation breeding, the right kidney was removed about 7 days before renal IR treatment. Specifically, the rats were allowed to inhale isoflurane (Mylan) for anesthesia, and administered buprenorphine (Otsuka Pharmaceutical) as an analgesic at 0.01 mg/kg. The right back was incised, the right kidney was removed, and then the incision was sutured.
Renal IR treatment was performed about 7 days after single kidney removal. Specifically, rats were anesthetized by intraperitoneal administration of sodium pentobarbital (Tokyo Chemical Industry) at a dose of 50 mg/kg, and administered buprenorphine as an analgesic at 0.01 mg/kg. The left abdomen was incised, and the renal artery and vein was sandwiched with a clamp (Natsume Seisakusho) to cause ischemia for 35 minutes. During ischemia, the rats were allowed to lie on a heat-retaining plate set at 38°C, and after 35 minutes, the clamp was removed for reperfusion. After visually confirming that blood flow to the kidney was recovered, the incision was sutured. The sham group was a sham-operated group in which neither ischemia nor reperfusion treatment was performed.
Animals were distributed on the day before renal IR treatment such that differences in the mean of the body weight in each group were not biased, and assigned animal numbers.
The compound of Example 7 (test substance) and physiological saline (Otsuka Pharmaceutical) as a vehicle were subcutaneously administered at 5 mL/kg using an injection needle 5 minutes before renal IR treatment. Saline was administered to the sham group in the same test. The administration dose is described in Table 16.
Specifically, the rats were allowed to inhale isoflurane for anesthesia on the day before renal IR treatment, and administered buprenorphine as an analgesic at 0.01 mg/kg. […] The incision was bonded with Dermabond Advanced (Johnson & Johnson). A pump containing a vehicle was also embedded in the sham group in the same test. The administration dose is described in Table 16.
After renal IR treatment, blood was collected through the tail vein on Day1, Day2, and Day3 to obtain serum. In addition, after renal IR treatment, rats were euthanized by exsanguination through the abdominal aorta under isoflurane anesthesia on Day3.
The respective concentrations of serum creatinine (sCre) and blood urea nitrogen (BUN) were measured using an automatic analyzer 7180 (Hitachi High-Tech).

[2] = IR 1.0 µg/kg/min, subcutaneous osmotic pump, day 1
[3] = IR 1.0 µg/kg/min, subcutaneous osmotic pump, day 2
[4] = IR 3.0 µg/kg/min, subcutaneous osmotic pump, day 1
[5] = IR 3.0 µg/kg/min, subcutaneous osmotic pump, day 2
[6] = IR 0.1 mg/kg subcutaneous 5 minutes before renal IR treatment, day 1
[7] = IR 0.1 mg/kg subcutaneous 5 minutes before renal IR treatment, day 2
[8] = IR 0.1 mg/kg subcutaneous 5 minutes before renal IR treatment, day 3
[9] = IR 1.0 mg/kg subcutaneous 5 minutes before renal IR treatment, day 1
[10] = IR 1.0 mg/kg subcutaneous 5 minutes before renal IR treatment, day 2
[11] = IR 1.0 mg/kg subcutaneous 5 minutes before renal IR treatment, day 3

SMILES: Cc1ccccc1C1(C(O)/C=C/[C@@H]2[C@H]3CCc4ccc(C(=O)O)c(F)c4O[C@H]3C[C@H]2O)CC1 (stereo partly drawn) [Example 5-2, (1R,2R,3aS,10aR)-5-fluoro-2-hydroxy-1-{(1E,3ξ)-3-hydroxy-3-[1-(2-methylphenyl)cyclopropyl]-1-propen-1-yl}-2,3,3a,9,10,10a-hexahydro-1H-benzo[b]cyclopenta[f]oxepine-6-carboxylic acid]
blood urea nitrogen (BUN) concentration mean [1, 2]: 75.5 | serum creatinine (sCre) concentration mean [1, 2]: 0.91 | blood urea nitrogen (BUN) concentration mean [1, 3]: 65.3 | serum creatinine (sCre) concentration mean [1, 3]: 0.62 | blood urea nitrogen (BUN) concentration mean [1, 4]: 63.4 | serum creatinine (sCre) concentration mean [1, 4]: 0.79 | blood urea nitrogen (BUN) concentration mean [1, 5]: 54.9 | serum creatinine (sCre) concentration mean [1, 5]: 0.50

SMILES: O=C(O)c1ccc2c(c1)O[C@H]1C[C@@H](O)[C@H](/C=C/[C@@H](O)C3(c4ccccc4)CC3)[C@H]1CC2 [Example 7, (1R,2R,3aS,10aR)-2-hydroxy-1-[(1E,3R)-3-hydroxy-3-(1-phenylcyclopropyl)-1-propen-1-yl]-2,3,3a,9,10,10a-hexahydro-1H-benzo[b]cyclopenta[f]oxepine-6-carboxylic acid]
blood urea nitrogen (BUN) concentration mean [1, 6]: 74.6 | serum creatinine (sCre) concentration mean [1, 6]: 1.08 | blood urea nitrogen (BUN) concentration mean [1, 7]: 58.7 | serum creatinine (sCre) concentration mean [1, 7]: 0.72 | blood urea nitrogen (BUN) concentration mean [1, 8]: 46.3 | serum creatinine (sCre) concentration mean [1, 8]: 0.52 | blood urea nitrogen (BUN) concentration mean [1, 9]: 73.6 | serum creatinine (sCre) concentration mean [1, 9]: 0.99 | blood urea nitrogen (BUN) concentration mean [1, 10]: 53.1 | serum creatinine (sCre) concentration mean [1, 10]: 0.62 | blood urea nitrogen (BUN) concentration mean [1, 11]: 39.7 | serum creatinine (sCre) concentration mean [1, 11]: 0.44

SMILES: Cc1c(C(=O)O)ccc2c1O[C@H]1C[C@@H](O)[C@H](/C=C/CC(C)(O)CCC(C)C)[C@H]1CC2 (stereo partly drawn) [Example 13, (1R,2R,3aS,10aR)-2-hydroxy-1-[(1E,4ξ)-4-hydroxy-4,7-dimethyl-1-octen-1-yl]-5-methyl-2,3,3a,9,10,10a-hexahydro-1H-benzo[b]cyclopenta[f]oxepine-6-carboxylic acid]
EC50 (EP1): > 10 µM

SMILES: O=C(O)c1ccc2c(c1Cl)O[C@H]1CC[C@H](/C=C/C(O)C3(c4ccccc4F)CCC3)[C@H]1CC2 (stereo partly drawn) [Example 26-17, (1R,3aS,10aR)-5-chloro-1-{(1E,3ξ)-3-[1-(2-fluorophenyl)cyclobutyl]-3-hydroxy-1-propen-1-yl}-2,3,3a,9,10,10a-hexahydro-1H-benzo[b]cyclopenta[f]oxepine-6-carboxylic acid]
EC50 (EP1): > 10 µM

SMILES: O=C(O)c1ccc2c(c1Cl)O[C@H]1CC[C@H](/C=C/C(O)C3(c4ccccc4)COC3)[C@H]1CC2 (stereo partly drawn) [Example 26-21, (1R,3aS,10aR)-5-chloro-1-[(1E,3ξ)-3-hydroxy-3-(3-phenyl-3-oxetanyl)-1-propen-1-yl]-2,3,3a,9,10,10a-hexahydro-1H-benzo[b]cyclopenta[f]oxepine-6-carboxylic acid]
EC50 (EP1): > 10 µM

Other lines, results leading:

EC50 (EP1): 3.5 µM
SMILES: C[C@@H](c1ccc(F)cc1F)[C@H](O)/C=C/[C@@H]1[C@H]2CCc3ccc(C(=O)O)c(F)c3O[C@H]2C[C@H]1O [Example 1, (1R,2R,3aS,10aR)-1-[(1E,3R,4S)-4-(2,4-difluorophenyl)-3-hydroxy-1-penten-1-yl]-5-fluoro-2-hydroxy-2,3,3a,9,10,10a-hexahydro-1H-benzo[b]cyclopenta[f]oxepine-6-carboxylic acid]

EC50 (EP1): 7.3 µM
SMILES: CC(c1ccccc1F)C(O)/C=C/[C@@H]1[C@H]2CCc3ccc(C(=O)O)c(F)c3O[C@H]2C[C@H]1O (stereo partly drawn) [Example 3, (1R,2R,3aS,10aR)-5-fluoro-1-[(1E)-4-(2-fluorophenyl)-3-hydroxy-1-penten-1-yl]-2-hydroxy-2,3,3a,9,10,10a-hexahydro-1H-benzo[b]cyclopenta[f]oxepine-6-carboxylic acid]

EC50 (EP1): 6.3 µM
SMILES: O=C(O)c1ccc2c(c1)O[C@H]1C[C@@H](O)[C@H](/C=C/C(O)C3(c4ccc(F)cc4)CCC3)[C@H]1CC2 (stereo partly drawn) [Example 7-13, (1R,2R,3aS,10aR)-1-{(1E,3ξ)-3-[1-(4-fluorophenyl)cyclobutyl]-3-hydroxy-1-propen-1-yl}-2-hydroxy-2,3,3a,9,10,10a-hexahydro-1H-benzo[b]cyclopenta[f]oxepine-6-carboxylic acid]

EC50 (EP1): 2.7 µM
SMILES: O=C(O)c1ccc2c(c1Cl)O[C@H]1C[C@@H](O)[C@H](/C=C/C(O)C(F)(F)c3c(F)cccc3F)[C@H]1CC2 (stereo partly drawn) [Example 8, (1R,2R,3aS,10aR)-5-chloro-1-[(1E,3ξ)-4-(2,6-difluorophenyl)-4,4-difluoro-3-hydroxy-1-buten-1-yl]-2-hydroxy-2,3,3a,9,10,10a-hexahydro-1H-benzo[b]cyclopenta[f]oxepine-6-carboxylic acid]

EC50 (EP1): > 10 µM
SMILES: O=C(O)c1ccc2c(c1)O[C@H]1CC[C@H](/C=C/C(O)C3(c4ccccc4F)CCC3)[C@H]1CC2 (stereo partly drawn) [Example 26-9, (1R,3aS,10aR)-1-{(1E,3ξ)-3-[1-(2-fluorophenyl)cyclobutyl]-3-hydroxy-1-propen-1-yl}-2,3,3a,9,10,10a-hexahydro-1H-benzo[b]cyclopenta[f]oxepine-6-carboxylic acid]

EC50 (EP1): > 10 µM
SMILES: C=C(CCOC)C(O)/C=C/[C@H]1CC[C@@H]2Oc3c(ccc(C(=O)O)c3Cl)CC[C@@H]21 (stereo partly drawn) [Example 26-19, (1R,3aS,10aR)-5-chloro-1-[(1E,3ξ)-3-hydroxy-6-methoxy-4-methylene-1-hexen-1-yl]-2,3,3a,9,10,10a-hexahydro-1H-benzo[b]cyclopenta[f]oxepine-6-carboxylic acid]

EC50 (EP1): > 10 µM
SMILES: CCCC[C@H](CC)C(O)/C=C/[C@H]1CC[C@@H]2Oc3c(ccc(C(=O)O)c3Cl)CC[C@@H]21 (stereo partly drawn) [Example 26-20, (1R,3aS,10aR)-5-chloro-1-[(1E,3ξ,4S)-4-ethyl-3-hydroxy-1-octen-1-yl]-2,3,3a,9,10,10a-hexahydro-1H-benzo[b]cyclopenta[f]oxepine-6-carboxylic acid]
